Source: patent publication US9458447B2, “MPHOSPH1 peptides and vaccines including the same” (OncoTherapy Science, Inc., priority 2011, dated 2016)
Where no end group is shown, it is not given here.

Assays:
Assay type in all cases: cell-based, human
peptide-pulsed T2 cells = experiment: IFN-gamma ELISPOT assay of CTLs induced with peptide-pulsed DCs; settings: CTLs from HLA-A*0201 positive donor after 3rd peptide stimulation, day 21; peptide-pulsed T2 vs control wells
From the text: Monocyte-derived dendritic cells (DCs) were used as antigen-presenting cells to induce cytotoxic T lymphocyte (CTL) that responses against peptides presented on human leukocyte antigen (HLA). DCs were generated in vitro as described elsewhere (Nakahara S et al., Cancer Res 2003 Jul. 15, 63(14): 4112-8). Specifically, peripheral blood mononuclear cells isolated from a normal volunteer (HLA-A*0201 positive) by Ficoll-Paque plus (Pharmacia) solution were separated by adherence to a plastic tissue culture dish (Becton Dickinson) so as to enrich them as the monocyte fraction. The monocyte-enriched population was cultured in the presence of 1000 U/ml of granulocyte-macrophage colony-stimulating factor (R&D System) and 1000 U/ml of interleukin (IL)-4 (R&D System) in AIM-V Medium (Invitrogen) containing 2% heat-inactivated autologous serum (AS). After 7 days of culture, the cytokine-induced DCs were pulsed with 20 microgram/ml of each of the synthesized peptides in the presence of 3 microgram/ml of beta 2-microglobulin for 3 hr at 37 degrees C. in AIM-V Medium. The generated cells appeared to express DC-associated molecules, such as CD80, CD83, CD86 and HLA class II, on their cell surfaces (data not shown). These peptide-pulsed DCs were then inactivated by X ray-irradiated (20 Gy) and mixed at a 1:20 ratio with autologous CD8^+ T cells, obtained by positive selection with CD8 Positive Isolation Kit (Dynal). These cultures were set up in 48-well plates (Corning); each well contained 1.5×10^4 peptide-pulsed DCs, 3×10^5 CD8^+ T cells and 10 ng/ml of IL-7 (R&D System) in 0.5 ml of AIM-V/2% AS medium. Three days later, these cultures were supplemented with IL-2 (CHIRON) to a final concentration of 20 IU/ml. On day 7 and 14, the T cells were further stimulated with the autologous peptide-pulsed DCs. The DCs were prepared each time by the same way described above. CTL was tested against peptide-pulsed T2 cells after the 3rd round of peptide stimulation on day 21 (Tanaka H et al., Br J Cancer 2001 Jan. 5, 84(1): 94-9; Umano Y et al., Br J Cancer 2001 Apr. 20, 84(8): 1052-7; Uchida N et al., Clin Cancer Res 2004 Dec. 15, 10(24): 8577-86; Suda T et al., Cancer Sci 2006 May, 97(5): 411-9; Watanabe T et al., Cancer Sci 2005 August, 96(8): 498-506).
(§1) To examine specific CTL activity, interferon(IFN)-gamma enzyme-linked immunospot (ELISPOT) assay and IFN-gamma enzyme-linked immunosorbent assay (ELISA) were performed. Peptide-pulsed T2 (1×10^4/well) was prepared as stimulator cells. Cultured cells in 48-well plate, CTL lines and CTL clones were used as responder cells. IFN-gamma ELISPOT assay and IFN-gamma ELISA assay were performed under manufacture procedure.

[1] = test system: T2 cells pulsed with the corresponding peptide; experiment: IFN-gamma ELISA of established CTL lines; settings: T2 cells pulsed with corresponding peptide vs T2 cells without peptide pulse
Procedure: CTLs were expanded in culture using the method similar to the one described by Riddell et al. (Walter E A et al., N Engl J Med 1995 Oct. 19, 333(16): 1038-44; Riddell S R et al., Nat Med 1996 February, 2(2): 216-23). A total of 5×10^4 CTLs were suspended in 25 ml of AIM-V/5% AS medium with 2 kinds of human B-lymphoblastoid cell lines, inactivated by Mitomycin C, in the presence of 40 ng/ml of anti-CD3 monoclonal antibody (Pharmingen). One day after initiating the cultures, 120 IU/ml of IL-2 were added to the cultures. The cultures were fed with fresh AIM-V/5% AS medium containing 30 IU/ml of IL-2 on days 5, 8 and 11 (Tanaka H et al., Br J Cancer 2001 Jan. 5, 84(1): 94-9; Umano Y et al., Br J Cancer 2001 Apr. 20, 84(8): 1052-7; Uchida N et al., Clin Cancer Res 2004 Dec. 15, 10(24): 8577-86; Suda T et al., Cancer Sci 2006 May, 97(5): 411-9; Watanabe T et al., Cancer Sci 2005 August, 96(8): 498-506).
as §1

[2] = test system: T2 cells pulsed with corresponding peptide; experiment: IFN-gamma ELISA of CTL clones established by limiting dilution
Procedure: The dilutions were made to have 0.3, 1, and 3 CTLs/well in 96 round-bottomed micro titer plate (Nalge Nunc International). CTLs were cultured with 1×10^4 cells/well of 2 kinds of human B-lymphoblastoid cell lines, 30 ng/ml of anti-CD3 antibody, and 125 U/ml of IL-2 in a total of 150 microliter/well of AIM-V Medium containing 5% AS. 50 microliter/well of IL-2 were added to the medium 10 days later to reach a final concentration of 125 U/ml IL-2. CTL activity was tested on the 14th day, and CTL clones were expanded using the same method as described above (Uchida N et al., Clin Cancer Res 2004 Dec. 15, 10(24): 8577-86; Suda T et al., Cancer Sci 2006 May, 97(5): 411-9; Watanabe T et al., Cancer Sci 2005 August, 96(8): 498-506).
as §1

UMUC-3 cells = experiment: Cytotoxic activity of CTL clone, 51Cr-release; settings: express both MPHOSPH1 and HLA-A*0201
Procedure: (§2) The CTL clones were examined for their ability to kill the tumor cells endogenously expressing MPHOSPH1 and HLA-A*0201. Target cells (tumor cell lines) were labeled with 100 micro-Ci of Na2^51CrO4 (Perkin Elmer) for 1 hr in CO2 incubator. Peptide-pulsed target cells were prepared by incubating the cells with 20 microgram/ml of the peptide for 16 hrs before labeling. Target cells labeled with ^51Cr were rinsed and mixed with CTL clones in a final volume of 200 microliter in 96-well round-bottom microtiter plates. The plates were centrifuged (4 minutes at 800 rpm) to increase cell-to-cell contact and placed into CO2 incubator. After 4 hrs of incubation, 50 microliter of the supernatant was collected from each well and the radioactivity was determined with a gamma counter (PerkinElmer). The percentage of specific cytotoxicity was determined by calculating the percentage of specific ^51Cr-release by the following formula: {(cpm of the test sample release−cpm of the spontaneous release)/(cpm of the maximum release−cpm of the spontaneous release)}×100. Spontaneous release was determined by incubating the target cells alone, in the absence of effector cells. The maximum release was obtained by incubating the targets with 1N HCl. All measurements were done in duplicate.

MKN45 cells = experiment: Cytotoxic activity of CTL clone, 51Cr-release, HLA-A*0201-negative control; settings: express MPHOSPH1 but not HLA-A*0201
Procedure: as §2

T2 cells = experiment: Cytotoxic activity of CTL clone, 51Cr-release, MPHOSPH1-negative control; settings: express HLA-A*0201 but not MPHOSPH1
Procedure: as §2

Substance | Peptide specific CTL activity (IFN-gamma production) by IFN-gamma ELISPOT (peptide-pulsed T2 cells) | IFN-gamma production of CTL lines by IFN-gamma ELISA [1] | IFN-gamma production from CTL clones by IFN-gamma ELISA [2] | Cytotoxic activity of CTL clone (UMUC-3 cells) | Cytotoxic activity of CTL clone (MKN45 cells) | Cytotoxic activity of CTL clone (T2 cells)
YLAYdETLNV (YLAYDETLNV; not fully specified (residue 5); printed as YLAYdETLNV) [SEQ ID NO: 73] | potent IFN-gamma production as compared to the control wells | potent IFN-gamma production against T2 cells pulsed with the corresponding peptide | Potent IFN-gamma production was observed | – | – | –
YIYDLFVPVS [SEQ ID NO: 120, YIYDLFVPVS] | – | – | – | potent cytotoxic activity | no significant cytotoxic activity was detected | no significant cytotoxic activity was detected
FQGCIMQPV (a peptide derived from MPHOSPH1) [SEQ ID NO: 14] | potent IFN-gamma production as compared to the control wells | potent IFN-gamma production against T2 cells pulsed with the corresponding peptide | – | – | – | –
GLRAFLLTI (a peptide derived from MPHOSPH1) [SEQ ID NO: 64] | potent IFN-gamma production as compared to the control wells | potent IFN-gamma production against T2 cells pulsed with the corresponding peptide | Potent IFN-gamma production was observed | – | – | –
LLTLgKCINV (LLTLGKCINV; not fully specified (residue 5); printed as LLTLgKCINV) [SEQ ID NO: 79] | potent IFN-gamma production as compared to the control wells | potent IFN-gamma production against T2 cells pulsed with the corresponding peptide | – | – | – | –
QLVAaLEIQL (QLVAALEIQL; not fully specified (residue 5); printed as QLVAaLEIQL) [SEQ ID NO: 103] | potent IFN-gamma production as compared to the control wells | potent IFN-gamma production against T2 cells pulsed with the corresponding peptide | – | – | – | –
FLLTIENEL (a peptide derived from MPHOSPH1) [SEQ ID NO: 5] | potent IFN-gamma production as compared to the control wells | potent IFN-gamma production against T2 cells pulsed with the corresponding peptide | Potent IFN-gamma production was observed | – | – | –
KLSNeIETAT (KLSNEIETAT; not fully specified (residue 5); printed as KLSNeIETAT) [SEQ ID NO: 97] | potent IFN-gamma production as compared to the control wells | potent IFN-gamma production against T2 cells pulsed with the corresponding peptide | – | – | – | –
KLLDLIEDL (a peptide derived from MPHOSPH1) [SEQ ID NO: 1] | no specific IFN-gamma production was observed | – | – | – | – | –
KLICnETVEV (KLICNETVEV; not fully specified (residue 5); printed as KLICnETVEV) [SEQ ID NO: 77] | potent IFN-gamma production as compared to the control wells | potent IFN-gamma production against T2 cells pulsed with the corresponding peptide | Potent IFN-gamma production was observed | – | – | –
